Patent US20250206751A1, “HETEROCYCLIC COMPOUND FOR INDUCING DEGRADATION OF G12D MUTANT KRAS PROTEIN” (Astellas Pharma Inc., priority 2022, published 2025)

How the values were obtained:
[1] = tested on: human G12D mutant KRAS-positive pancreatic cancer line AsPC-1; experiment: Non-anchorage-dependent cell growth inhibition, spheroid 3D cell culture (Test Example 3); type: cell-based; details: AsPC-1 spheroid 3D culture, 6 days, CellTiter Glo 2.0
Procedure, shortened: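 AsPC-1 spheroids, 5×10^2 cells per well on low-adhesion round-bottom plates in RPMI 1640/10% FBS, dosed next day at 10 or 6 points spanning 10 μM to 0.3 nM final for 6 days at 37° C., 5% CO2. Viability by CellTiter Glo 2.0 luminescence; IC50 by Sigmoid-Emax regression, DMSO 100% and cell-free medium 0%.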

KRAS G12D protein = target: T1, KRAS G12D protein (Homo sapiens, UniProt P01116, G12D); experiment: KRAS degradation activity by Cell ELISA in AsPC-1 (Test Example 1); type: cell-based; details: AsPC-1 cells, cultured overnight with compound, corrected with β-actin, read-out: DC50 (50% degradation concentration of the amounts of KRAS)
T1 construct: host or cells: AsPC-1
Procedure, shortened: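 AsPC-1 cells (KRAS G12D), 2.0×10^4/well, treated overnight with compound (10 points, 10 μM–0.3 nM final) in RPMI 1640/10% FBS. Fixed cells immunostained for G12D-specific Ras and β-actin, with near-IR fluorescence read. Ras/actin ratio scaled DMSO = 0% and actin-only = 100%, and DC50 fitted by Sigmoid-Emax regression.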

T1 sequence (P01116 1-188 isoform P01116-2 G12D): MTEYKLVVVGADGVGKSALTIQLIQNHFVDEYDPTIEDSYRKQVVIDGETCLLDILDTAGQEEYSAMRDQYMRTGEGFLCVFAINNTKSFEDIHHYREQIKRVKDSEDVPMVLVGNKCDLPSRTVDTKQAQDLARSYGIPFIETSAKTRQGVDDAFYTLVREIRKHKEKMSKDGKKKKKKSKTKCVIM

IC50 ([1]; Homo sapiens, ASPC1, 144 h) [nM] | DC50 (KRAS G12D protein) [nM] | IC50 [1] [nM] | SMILES
9 | 15 | – | Cc1ncsc1-c1ccc([C@H](CO)NC(=O)[C@@H]2C[C@@H](O)CN2C(=O)[C@H](C(C)C)n2cc(-c3ccc(COc4c(-c5c(C)c(F)cc6[nH]ncc56)c(C5CC5)cc5c(N(C)[C@H]6CCNC6)nc(OC[C@H]6CCCO6)nc45)cc3)nn2)cc1 (atropisomer, axis not shown; (M)) [Example 9, (4R)-1-[(2S)-2-{4-[4-({[(7M) 6-cyclopropyl-7-(6-fluoro-5-methyl-1H-indazol-4-yl)-4-{methyl[(3S)-pyrrolidin-3-yl]amino}-2-{[(2R)-oxolan-2-yl]methoxy}quinazolin-8-yl}oxy}methyl)phenyl]-1H-1,2,3-triazol-1-yl}-3-methylbutanoyl]-4-hydroxy-N-{(1R)-2-hydroxy-1-[4-(4-methyl-1,3-thiazol-5-yl)phenyl]ethyl}-L-prolinamide]
– | 10 | 19 | CO[C@@H](C)COc1cc(N(C)[C@H]2CCNC2)c2cc(C3CC3)c(-c3c(C)c(F)cc4[nH]ncc34)c(OCc3ccc(-c4cn([C@H](C(=O)N5C[C@H](O)C[C@H]5C(=O)N[C@@H](CO)c5ccc(-c6scnc6C)cc5)C(C)C)nn4)cc3)c2n1 (atropisomer, axis not shown; (M)) [Example 11, (4R)-1-[(2S)-2-{4-[4-({[(7M)-6-cyclopropyl-7-(6-fluoro-5-methyl-1H-indazol-4-yl)-2-[(2S)-2-methoxypropoxy]-4-{methyl[(3S)-pyrrolidin-3-yl]amino}quinazolin-8-yl]oxy}methyl)phenyl]-1H-1,2,3-triazol-1-yl}-3-methylbutanoyl]-4-hydroxy-N-{(1R)-2-hydroxy-1-[4-(4-methyl-1,3-thiazol-5-yl)phenyl]ethyl}-L-prolinamide]

The remaining lines, values behind:

SMILES | IC50 ([1]; Homo sapiens, ASPC1, 144 h) [nM] | DC50 (KRAS G12D protein) [nM] | IC50 [1] [nM]
CCn1nccc1-c1ccc([C@H](CO)NC(=O)[C@@H]2C[C@@H](O)CN2C(=O)[C@H](C(C)C)n2cc(-c3ccc(COc4c(-c5c(C)c(F)cc6[nH]ncc56)c(C5CC5)cc5c(N(C)[C@H]6CCNC6)nc(OC[C@H](C)OC)nc45)cc3)nn2)cc1 (atropisomer, axis not shown; (M)) [Example 13] | 10 | 10 | –
CCN(c1nc(OC[C@H](C)OC)nc2c(OCc3ccc(-c4cn([C@H](C(=O)N5C[C@H](O)C[C@H]5C(=O)N[C@@H](CO)c5ccc(-c6scnc6C)cc5)C(C)C)nn4)cc3)c(-c3c(C)c(F)cc4[nH]ncc34)c(C3CC3)cc12)[C@H]1CCNC1 (atropisomer, axis not shown; (M)) [Example 50, (4R)-1-[(2S)-2-(4-{4-[({(7M)-6-cyclopropyl-4-{ethyl[(3S)-pyrrolidin-3-yl]amino}-7-(6-fluoro-5-methyl-1H-indazol-4-yl)-2-[(2S)-2-methoxypropoxy]quinazolin-8-yl}oxy)methyl)phenyl}-1H-1,2,3-triazol-1-yl)-3-methylbutanoyl]-4-hydroxy-N-{(1R)-2-hydroxy-1-[4-(4-methyl-1,3-thiazol-5-yl)phenyl]ethyl}-L-prolinamide] | 8 | 18 | –
CO[C@@H](C)COc1nc(N(C)[C@@H]2CCNC2)c2cc(C3CC3)c(-c3c(C)c(F)cc4[nH]ncc34)c(OCc3ccc(-c4cn([C@H](C(=O)N5C[C@H](O)C[C@H]5C(=O)N[C@@H](CO)c5ccc(-c6scnc6C)cc5)C(C)C)nn4)cc3)c2n1 (atropisomer, axis not shown; (M)) [Example 53] | 10 | 7 | –
